These results are taken from patent US20050197376A1, “Concomitant drugs” (Fujisawa Pharmaceutical Co. Ltd., priority 2004, published 2005).

In this test the test system is type II diabetic patients. Kind of test: Concurrent oral administration with sulfonylurea to type II diabetic patients. Format: in vivo, human. Conditions: type II diabetic patients on sulfonylureas (glipizide, glyburide or glimepiride); 15 mg/day oral, concurrently with sulfonylurea, plural months.

SMILES strings stand for the structures.

For the molecule `CCCCCS(=O)(=O)NC(=O)c1ccc2nc(C)n(Cc3ccc(Cl)cc3Cl)c2c1` [(3), 1-(2,4-dichlorobenzyl)-2-methyl-N-(pentylsulfonyl)-1H-benzimidazole-6-carboxamide], the HbAlc decrease entry is given as “not less than 1 % point”.
